Test results published in US9650395B2, “Antibacterial compounds and methods for use” (PTC Therapeutics, Inc., priority 2011, dated 2017).
Values after ≈ are worked out from the molar mass of the structure shown.

Legend:
[1] = system: super sensitive Gram-negative Escherichia coli (E. coli) BAS849; experiment: Antibacterial activity, microbroth dilution MIC, E. coli BAS849; type: cell-based; conditions: Escherichia coli; E. coli BAS849, microbroth dilution; read-out: MIC, BAS849
[2] = system: Gram-positive Staphylococcus aureus (S. aureus) 29213; experiment: Antibacterial activity, microbroth dilution MIC, S. aureus 29213; type: cell-based; conditions: Staphylococcus aureus; S. aureus 29213, microbroth dilution; read-out: MIC, 29213
[3] = system: Haemophilus influenzae (H. influenzae) 49247; experiment: Antibacterial activity, MIC, H. influenzae 49247; type: cell-based; conditions: Haemophilus influenzae; H. influenzae 49247; read-out: MIC 49247
Description: (§1) The antibacterial activity from a microbroth dilution method may be presented as the minimum inhibitory concentration (MIC in […]). The MIC value is the lowest concentration of a drug which prevents macroscopically visible bacterial growth under test conditions.
Antibacterial activity of test compounds against the Gram-negative bacteria Haemophilus influenzae (H. influenzae) 49247, Moraxella catarrhalis (M. catarrhalis) 25238 and Neisseria meningitidis (N. meningitidis) 13090 is shown in Table 6.

[4] = system: Moraxella catarrhalis (M. catarrhalis) 25238; experiment: Antibacterial activity, MIC, M. catarrhalis 25238; type: cell-based; conditions: Moraxella catarrhalis, M. catarrhalis 25238; read-out: MIC 25238
[5] = system: Neisseria meningitidis (N. meningitidis) 13090; experiment: Antibacterial activity, MIC, N. meningitidis 13090; type: cell-based; conditions: Neisseria meningitidis; N. meningitidis 13090; read-out: MIC 13090
[6] = system: control Gram-negative E. coli 25922 strain; experiment: Antibacterial activity, microbroth dilution MIC, E. coli 25922; type: cell-based, Escherichia coli; conditions: Escherichia coli; E. coli 25922, microbroth dilution; read-out: MIC, 25922
[7] = system: quinolone resistant E. coli LZ3111; experiment: Antibacterial activity, MIC, quinolone resistant E. coli LZ3111; type: cell-based, Escherichia coli; conditions: Escherichia coli, read-out: MIC, LZ3111
Description: as §1
Mutations in these regions are known to confer a high level resistance to the quinolone class of antibiotics.

[8] = system: E. coli ELZ4000 (MDR clinical isolate); experiment: Antibacterial activity, MIC, MDR E. coli ELZ4000; type: cell-based, Escherichia coli; conditions: Escherichia coli; E. coli ELZ4000, MDR clinical isolate; read-out: MIC ELZ4000
[9] = system: E. coli ELZ4251 (MDR clinical isolate); experiment: Antibacterial activity, MIC, MDR E. coli ELZ4251; type: cell-based, Escherichia coli; conditions: Escherichia coli, E. coli ELZ4251, MDR clinical isolate; read-out: MIC ELZ4251

| SMILES | MIC [1] | MIC [2] | MIC [3] | MIC [4] | MIC [5] | MIC [6] | MIC [7] | MIC [8] | MIC [9] |
| --- | --- | --- | --- | --- | --- | --- | --- | --- | --- |
| CN(C)c1ccc(-c2[nH]c(=O)c(C(=O)O)cc2Cc2ccccc2)cc1 [Cpd 1, 5-benzyl-6-[4-(dimethylamino)phenyl]-2-oxo-1,2-dihydropyridine-3-carboxylic acid] | 12.5 to 150 µg/mL (≈ 35.9 to 431 µM) | 12.5 to 150 µg/mL (≈ 35.9 to 431 µM) | < 1 µg/mL | 3.5 to 12.5 µg/mL (≈ 10 to 35.9 µM) | 3.5 to 12.5 µg/mL (≈ 10 to 35.9 µM) | – | – | – | – |
| CN(C)c1ccc(-c2[nH]c(=O)c(C(=O)O)c(O)c2Cc2ccccc2)cc1 [Cpd 2, 5-benzyl-6-[4-(dimethylamino)phenyl]-4-hydroxy-2-oxo-1,2-dihydropyridine-3-carboxylic acid] | 12.5 to 150 µg/mL (≈ 34.3 to 412 µM) | 3.5 to 12.5 µg/mL (≈ 9.6 to 34.3 µM) | < 1 µg/mL | < 1 µg/mL | < 1 µg/mL | 12.5 to 150 µg/mL (≈ 34.3 to 412 µM) | – | – | – |
| CCc1cc(C(=O)O)c(=O)[nH]c1-c1ccc(N)cc1 [Cpd 3, 6-(4-aminophenyl)-5-ethyl-2-oxo-1,2-dihydropyridine-3-carboxylic acid] | < 1 µg/mL | 12.5 to 150 µg/mL (≈ 48.4 to 581 µM) | – | < 1 µg/mL | < 1 µg/mL | 3.5 to 12.5 µg/mL (≈ 13.6 to 48.4 µM) | 12.5 to 150 µg/mL (≈ 48.4 to 581 µM) | 12.5 to 150 µg/mL (≈ 48.4 to 581 µM) | 12.5 to 150 µg/mL (≈ 48.4 to 581 µM) |
| CN(C)c1ccc(-c2[nH]c(=O)c(C(=O)O)cc2C2CCCCC2)cc1 [Cpd 6, 5-cyclohexyl-6-[4-(dimethylamino)phenyl]-2-oxo-1,2-dihydropyridine-3-carboxylic acid] | 3.5 to 12.5 µg/mL (≈ 10.3 to 36.7 µM) | 12.5 to 150 µg/mL (≈ 36.7 to 441 µM) | < 1 µg/mL | 3.5 to 12.5 µg/mL (≈ 10.3 to 36.7 µM) | < 1 µg/mL | 12.5 to 150 µg/mL (≈ 36.7 to 441 µM) | – | – | – |
| CN(C)c1ccc(-c2[nH]c(=O)c(C(=O)O)c(O)c2C2CCCCC2)cc1 [Cpd 7, 5-cyclohexyl-6-[4-(dimethylamino)phenyl]-4-hydroxy-2-oxo-1,2-dihydropyridine-3-carboxylic acid] | 3.5 to 12.5 µg/mL (≈ 9.82 to 35.1 µM) | 1 to 3.5 µg/mL (≈ 2.81 to 9.82 µM) | < 1 µg/mL | < 1 µg/mL | 1 to 3.5 µg/mL (≈ 2.81 to 9.82 µM) | 12.5 to 150 µg/mL (≈ 35.1 to 421 µM) | – | – | – |
| CCCc1c(-c2ccc(N(C)C)cc2)[nH]c(=O)c(C(=O)O)c1O [Cpd 9, 6-[4-(dimethylamino)phenyl]-4-hydroxy-2-oxo-5-propyl-1,2-dihydropyridine-3-carboxylic acid] | < 1 µg/mL | 1 to 3.5 µg/mL (≈ 3.16 to 11.1 µM) | < 1 µg/mL | < 1 µg/mL | < 1 µg/mL | 12.5 to 150 µg/mL (≈ 39.5 to 474 µM) | – | – | – |
| CN(C)c1ccc(-c2[nH]c(=O)c(C(=O)O)cc2C(=O)O)cc1 [Cpd 11, 6-[4-(dimethylamino)phenyl]-2-oxo-1,2-dihydropyridine-3,5-dicarboxylic acid] | 12.5 to 150 µg/mL (≈ 41.4 to 496 µM) | 12.5 to 150 µg/mL (≈ 41.4 to 496 µM) | < 1 µg/mL | 12.5 to 150 µg/mL (≈ 41.4 to 496 µM) | 12.5 to 150 µg/mL (≈ 41.4 to 496 µM) | 12.5 to 150 µg/mL (≈ 41.4 to 496 µM) | – | – | – |
| CN(C)c1ccc(-c2[nH]c(=O)c(C(=O)O)c(O)c2C2CC2)cc1 [Cpd 13, 5-cyclopropyl-6-[4-(dimethylamino)phenyl]-4-hydroxy-2-oxo-1,2-dihydropyridine-3-carboxylic acid] | 1 to 3.5 µg/mL (≈ 3.18 to 11.1 µM) | 3.5 to 12.5 µg/mL (≈ 11.1 to 39.8 µM) | < 1 µg/mL | < 1 µg/mL | < 1 µg/mL | 12.5 to 150 µg/mL (≈ 39.8 to 477 µM) | – | – | – |
| CN(C)c1ccc(-c2[nH]c(=O)c(C(=O)O)cc2C#N)cc1 [Cpd 14, 5-cyano-6-[4-(dimethylamino)phenyl]-2-oxo-1,2-dihydropyridine-3-carboxylic acid] | 12.5 to 150 µg/mL (≈ 44.1 to 529 µM) | 12.5 to 150 µg/mL (≈ 44.1 to 529 µM) | < 1 µg/mL | 12.5 to 150 µg/mL (≈ 44.1 to 529 µM) | 12.5 to 150 µg/mL (≈ 44.1 to 529 µM) | 12.5 to 150 µg/mL (≈ 44.1 to 529 µM) | – | – | – |
| CCc1cc(C(=O)O)c(=O)[nH]c1-c1ccc(N(C)CCOC2CCCCO2)cc1 (stereo not drawn) [Cpd 16, 5-ethyl-6-(4-{methyl[2-(tetrahydro-2H-pyran-2-yloxy)ethyl]amino}phenyl)-2-oxo-1,2-dihydropyridine-3-carboxylic acid] | < 1 µg/mL | 12.5 to 150 µg/mL (≈ 31.2 to 375 µM) | < 1 µg/mL | < 1 µg/mL | – | 3.5 to 12.5 µg/mL (≈ 8.74 to 31.2 µM) | 12.5 to 150 µg/mL (≈ 31.2 to 375 µM) | 12.5 to 150 µg/mL (≈ 31.2 to 375 µM) | 12.5 to 150 µg/mL (≈ 31.2 to 375 µM) |
